Results as given in patent publication US20240279232A1, “USE OF SUBSTITUTED 5-(4-METHYL-6-PHENYL-4H-BENZO[F]IMIDAZO[1,5-A][1,4] DIAZEPIN-3-YL)-1,2,4-O[…] THE TREATMENT OF INFLAMMATORY CONDITIONS” (priority 2021, published 2024).

Key:
RAW macrophages [1] = test: NO production (Griess assay), LPS/IFNγ-activated RAW264.7 macrophages; type: cell-based, mouse; conditions: for Inhibition of NO production (%) RAW macrophages 10 μM: 24 hours, 1 μM GABA, LPS/IFNγ
Mouse microglia [2] = test: NO production (Griess assay), LPS/IFNγ-activated mouse microglia; type: cell-based
Method: (§1) Next, a library of GABAAR ligands was investigated to identify compounds that reduce the production of NO as a marker of anti-inflammatory activity. […] NO was quantified with a Greiss assay. Cell viability was determined with CellTiter-Glo.
Cell culture. A) HMC3 Microglia (CRL-3304) were maintained in treated cell culture flasks (Nunc, 156472) with EMEM (Corning, 10010CV) supplemented with 10% heat-inactivated FBS (Corning, 35011CV) and 100 U/mL penicillin and 100 μg/mL streptomycin (Hyclone, SV30010). Cultures were maintained at 37° C. and 5% CO2. When cells reached a density of 7×10^4 cells/mL, cultures were passaged with 0.25% Trypsin (Corning, 25-053-CI) and resuspended to a density no lower than 10,000 cells/mL. B) Human and mouse microglia cell lines were a gift from Dr. David Alvarez-Carbonell at Case Western Reserve University (Cleveland, OH). Microglia were cultured in cell culture treated flasks (Nunc, 156472) with DME/F12 media (Hyclone, SH30023.01) supplemented with 10% heat-inactivated FBS (Corning, 35011CV), 100 U/mL penicillin/100 μg/mL streptomycin (Hyclone, SV30010), and Normocin (Invivogen, ant-nr). Cultures were maintained at 37° C. and 5% CO2. […] Cultures were maintained at 37° C. and 5% CO2. Cells were passaged when they reached a density of approximately 3×10^6 cells/mL using cell scrapers (VWR, 10062-906) to lift cells from flask surface and resuspended at densities of approximately 500,000 cells/mL.
(§2) Nitric oxide production (Griess assay) and viability assay (CellTiter-Glo). 80 μL of mouse microglia culture (1×10^6 cells/mL) was plated into sterile 384 well plates representing non-activated wells. The remaining culture was activated with 50 ng/ml LPS (Invivogen, NC9836) and 150 U/mL IFNγ (R&D Systems, 485MI100) and distributed into the 384 well plates. […] Assay plates were incubated for approximately 24 hours (unless otherwise noted) at 37° C., centrifuged, and 40 μL of supernatant transferred to a new plate for analysis using the Griess Assay (Promega, Madison, WI). Absorbance at 530 nm was measured using a TECAN Infinite M1000 plate reader. The remaining 40 μL containing cells was analyzed for toxicity by the CellTiter-Glo Assay (Promega, Madison, WI). Luminescence was read using a TECAN Infinite M1000 plate reader.

RAW macrophages [3] = test: Cell viability (CellTiter-Glo), RAW macrophages; type: cell-based, mouse; conditions: CellTiter-Glo
Mouse microglia [4] = test: Cell viability (CellTiter-Glo), mouse microglia; type: cell-based; conditions: 50 μM, CellTiter-Glo
Method: as §1, §2

HEK293 = test: Viability assay (CellTiter-Glo), HEK293; type: cell-based, human; conditions: 120 μM, CellTiter-Glo
Method: (§3) The screen identified several compounds that reduced NO in activated microglia and macrophages. The tested compounds included achiral and chiral imidazodiazepines and benzodiazepines. In general, microglia were more sensitive to compound treatment with more pronounced reduction of NO than macrophages. […] Cell viability assays with HEK293 (kidney) and HepG2 (liver) cells were conducted in a concentration dependent manner. A limited number of compounds, such as GL-III-63, GL-III-76A, and GL-III-77, were toxic at 120 μM.
(§4) Viability assay. Human liver hepatocellular carcinoma (HEPG2) and human embryonic kidney 293T (HEK293T) cell lines were purchased (ATCC) and cultured in 75 cm^2 flasks (CellStar). Cells were grown in DMEM/High Glucose (Hyclone, #SH3024301) media to which non-essential amino acids (Hyclone, #SH30238.01), 10 mM HEPES (Hyclone, #SH302237.01), 5×10^6 units of penicillin and streptomycin (Hyclone, #SV30010), and 10% of heat inactivated fetal bovine serum (Gibco, #10082147) were added. Cells were harvested using 0.05% Trypsin (Hyclone, #SH3023601), washed with PBS, and dispensed into sterile white, optical bottom 384-well plates (NUNC, #142762). After three hours, small molecule DMSO solutions were transferred with a Tecan Freedom EVO liquid handling system equipped with a 100 nL pin tool (V&P Scientific). The controls were 3-dibutylamino-1-(4-hexyl-phenyl)-propan-1-one (25 mM in DMSO, positive control) and DMSO (negative control). The cells were incubated for 48 hours followed by the addition of CellTiter-Glo™, a luminescence-based cell viability assay (Promega, Madison, WI). All luminescence readings were performed on a Tecan Infinite M1000 plate reader. The assay was carried out in quadruplet with two independent runs. The data were analyzed by nonlinear regression.

HEPG2 = test: Viability assay (CellTiter-Glo), HEPG2; type: cell-based, human; conditions: 120 μM, CellTiter-Glo
Method: as §3, §4

KOR (κ opioid receptor) = biological target: T1, KOR (κ opioid receptor) (Homo sapiens, UniProt P41145); test: KOR radioligand binding ([3H]-U69593, HEK293 cell homogenates); conditions: for inhibition at 10 µM: Percent inhibition at 10,000 nM, [3H]-U69593
T1 construct: expressed in transfected cells; host or cells: HEK293 (stably transfected)

MOR (μ opioid receptor) = biological target: T2, MOR (μ opioid receptor) (Homo sapiens, UniProt P35372); test: MOR radioligand binding ([3H]-DAMGO, HEK293 cell homogenates); conditions: Percent inhibition at 10,000 nM; [3H]-DAMGO
T2 construct: expressed in transfected cells; host or cells: HEK293

DOR (δ opioid receptor) = biological target: T3, DOR (δ opioid receptor) (Homo sapiens, UniProt P41143); test: DOR radioligand binding ([3H]-DADLE, HEK293 cell homogenates); conditions: Percent inhibition at 10,000 nM; [3H]-DADLE
T3 construct: expressed in transfected cells; host or cells: HEK293

[5] = system: BZR (benzodiazepine site of GABAAR); test: GABAAR/BZR binding, rat brain homogenate with 3H-flunitrazepam; conditions: rat brain homogenate, 3H-flunitrazepam; for BZR %: Percent inhibition at 10,000 nM
Outline: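 Primary screen at 10,000 nM; where displacement exceeded 50%, Ki came from nonlinear regression of concentration–response data (n=6). Radioligand was 3H-flunitrazepam at roughly Kd on rat brain homogenate, usually 90 min, room temperature, dark, with 10 μM reference compound for nonspecific binding, then filtration and scintillation counting.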

T1 sequence (P41145 whole entry): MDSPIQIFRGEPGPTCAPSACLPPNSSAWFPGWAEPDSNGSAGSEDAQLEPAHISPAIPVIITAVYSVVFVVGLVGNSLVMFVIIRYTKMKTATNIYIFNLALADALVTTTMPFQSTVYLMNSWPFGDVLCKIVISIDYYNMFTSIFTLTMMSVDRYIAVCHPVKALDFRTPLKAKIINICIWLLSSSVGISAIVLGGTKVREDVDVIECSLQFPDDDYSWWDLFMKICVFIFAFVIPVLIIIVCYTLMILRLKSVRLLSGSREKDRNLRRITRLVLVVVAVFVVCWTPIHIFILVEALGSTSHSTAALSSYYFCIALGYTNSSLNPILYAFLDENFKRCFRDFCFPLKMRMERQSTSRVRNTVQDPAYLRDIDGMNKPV
T2 sequence (P35372 whole entry, species assumed): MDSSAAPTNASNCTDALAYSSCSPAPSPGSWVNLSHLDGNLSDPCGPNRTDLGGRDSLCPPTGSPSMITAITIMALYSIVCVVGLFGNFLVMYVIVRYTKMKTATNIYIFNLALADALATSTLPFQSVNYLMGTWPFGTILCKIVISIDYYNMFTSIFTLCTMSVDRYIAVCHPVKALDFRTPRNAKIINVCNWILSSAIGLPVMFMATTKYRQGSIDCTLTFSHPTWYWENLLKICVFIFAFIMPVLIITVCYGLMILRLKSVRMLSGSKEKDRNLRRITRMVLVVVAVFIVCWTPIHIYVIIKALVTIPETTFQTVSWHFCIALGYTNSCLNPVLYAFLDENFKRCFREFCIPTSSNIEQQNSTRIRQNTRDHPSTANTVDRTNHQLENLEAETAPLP
T3 sequence (P41143 whole entry): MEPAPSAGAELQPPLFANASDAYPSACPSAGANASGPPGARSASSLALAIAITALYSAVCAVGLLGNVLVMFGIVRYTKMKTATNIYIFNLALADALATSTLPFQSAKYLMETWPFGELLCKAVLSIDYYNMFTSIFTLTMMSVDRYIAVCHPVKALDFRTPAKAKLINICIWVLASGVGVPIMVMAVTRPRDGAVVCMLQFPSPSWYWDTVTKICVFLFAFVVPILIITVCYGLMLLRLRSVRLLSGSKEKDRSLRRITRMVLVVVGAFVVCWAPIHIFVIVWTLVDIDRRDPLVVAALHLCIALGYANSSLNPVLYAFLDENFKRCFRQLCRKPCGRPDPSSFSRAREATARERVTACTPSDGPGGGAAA

Compound | Inhibition of NO production (%) RAW macrophages 10 μM (RAW macrophages [1]) [%] | Inhibition of NO production (%) Mouse microglia 10 μM (Mouse microglia [2]; 24 hours, 1 μM GABA, LPS/IFNγ) [%] | Cell viability (%) RAW macrophages 50 μM (RAW macrophages [3]) [%] | Cell viability (%) Mouse microglia 50 μM (Mouse microglia [4]) [%] | Cell viability (%) HEK293 120 μM (HEK293) [%] | Cell viability (%) HEPG2 120 μM (HEPG2) [%] | inhibition at 10 µM (KOR (κ opioid receptor)) [%] | inhibition at 10 µM (MOR (μ opioid receptor)) [%] | inhibition at 10 µM (DOR (δ opioid receptor)) [%] | BZR % [5] [%] | Ki [5] [µM] | inhibition at 10 µM (RAW macrophages [1]; Mus musculus, Macrophage, 24 h) [%] | inhibition at 10 µM (Mouse microglia [2]; Mus musculus, Microglia, 24 h) [%] | Inhibition of NO production (%) Mouse microglia 50 μM (Mouse microglia [2]; 50 μM, 24 hours, 1 μM GABA, LPS/IFNγ) [%] | NO production of activated microglia (in words) (Mouse microglia [2]; dexamethasone 100 nM, GABA 1 μM, MP-IV-010 50 μM, GL-II-33 in the library screen) | Ki (KOR (κ opioid receptor)) [µM] | inhibition at 50 µM (Mouse microglia [2]; Mus musculus, Microglia, 24 h) [%]
CCOC(=O)c1ncn2c1[C@@H](C)N=C(c1ccccn1)c1cc(C#C[Si](C)(C)C)ccc1-2 [GL-II-18] | 11 ± 4 | 49 ± 10 | 99 ± 2 | 89 ± 9 | 53 ± 10 | 100 ± 8 |  |  |  |  |  |  |  |  |  |  | 
C#Cc1ccc2c(c1)C(c1ccccn1)=N[C@H](C)c1c(C(=O)OC)ncn1-2 [GL-II-32] |  |  | 100 ± 4 | 95 ± 8 | 80 ± 6 |  | 35 | 32 | 0 | 63 | 1.43 | 6 ± 3 | 7 ± 2 |  |  |  | 
C#Cc1ccc2c(c1)C(c1ccccn1)=NC(C)c1c(-c3nc(C)no3)ncn1-2 (stereo not drawn) [GL-II-33] |  |  | 100 ± 7 | 100 ± 4 |  |  |  |  |  |  |  |  |  | 0 ± 3 | did not reduce NO production |  | 
C#Cc1ccc2c(c1)C(c1ccccn1)=N[C@H](C)c1c(-c3nc(CC)no3)ncn1-2 [GL-II-54] |  |  | 100 ± 8 | 95 ± 3 |  |  | 80 | 0 | 0 | 66 | 2.04 |  |  |  |  | 0.504 | 0
C#Cc1ccc2c(c1)C(c1ccccn1)=NC(C)C(=O)N2C (stereo not drawn) [GL-II-61] | 10 ± 4 | 28 ± 2 | 100 ± 8 | 91 ± 8 | 83 ± 10 | 82 ± 3 |  |  |  |  |  |  |  |  |  |  | 
C#Cc1ccc2c(c1)C(c1ccccc1F)=NCc1c(C(=O)O)ncn1-2 [GL-II-79] | 0 ± 3 | 44 ± 6 | 100 ± 3 | 84 ± 5 | 91 ± 13 | 100 ± 7 |  |  |  |  |  |  |  |  |  |  | 
C#Cc1ccc2c(c1)C(c1ccccn1)=NCc1c(C(=O)O)ncn1-2 [GL-III-13] | 0 ± 2 |  | 100 ± 9 | 92 ± 9 | 74 ± 5 | 100 ± 10 |  |  |  |  |  |  |  |  |  |  | 
C#Cc1ccc2c(c1)C(c1ccccn1)=NCC(=O)N2 [GL-III-58] |  | 48 ± 4 | 100 ± 14 | 83 ± 4 | 89 ± 2 | 100 ± 5 |  |  |  |  |  |  |  |  |  |  | 
